Measured values taken from patent US20050069887A1, “Dna synthesis promoters dna polymerase-associated factors and utilization thereof” (priority 2001, published 2005).

Assays:
[1] = target: T1, nPfu DNA polymerase (Pyrococcus furiosus, UniProt P61875); assay: PCR using nPfu with oxalate ion and betaine (Example 2-2); assay type: biochemical; details: 2 mM potassium oxalate, FIG. 12
T1 construct: α-Type Enzyme (Native Pfu); purchased STRATAGENE
T1 sequence (P61875 1-775): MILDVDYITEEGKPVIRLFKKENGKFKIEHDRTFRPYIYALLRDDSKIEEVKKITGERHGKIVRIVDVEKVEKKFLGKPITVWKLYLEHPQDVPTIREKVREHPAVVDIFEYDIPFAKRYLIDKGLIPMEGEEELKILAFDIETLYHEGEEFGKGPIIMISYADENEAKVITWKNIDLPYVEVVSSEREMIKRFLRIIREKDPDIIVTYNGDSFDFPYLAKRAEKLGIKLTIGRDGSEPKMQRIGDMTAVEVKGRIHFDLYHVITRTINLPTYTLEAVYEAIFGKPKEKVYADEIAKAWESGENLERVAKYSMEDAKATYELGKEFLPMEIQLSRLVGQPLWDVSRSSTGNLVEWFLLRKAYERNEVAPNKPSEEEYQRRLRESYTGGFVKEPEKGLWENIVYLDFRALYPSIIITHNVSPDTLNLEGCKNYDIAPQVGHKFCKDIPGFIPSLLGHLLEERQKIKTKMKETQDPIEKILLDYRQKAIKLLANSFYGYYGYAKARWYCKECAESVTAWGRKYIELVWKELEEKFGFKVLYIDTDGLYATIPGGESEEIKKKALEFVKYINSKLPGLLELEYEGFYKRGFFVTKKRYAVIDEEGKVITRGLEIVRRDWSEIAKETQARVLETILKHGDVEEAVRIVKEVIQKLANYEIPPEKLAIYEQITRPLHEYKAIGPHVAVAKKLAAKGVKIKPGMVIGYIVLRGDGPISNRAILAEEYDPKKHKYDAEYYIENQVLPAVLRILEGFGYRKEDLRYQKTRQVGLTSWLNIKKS
Experimental: Oxalate ion and betaine were investigated for their synergistic effectiveness in amplification of a target DNA which cannot be usually amplified by PCR using nPfu polymerase. Potassium oxalate was added to the PCR buffer (20 mM Tris-HCl(pH: 8.75), 10 mM KCl, 10 mM (NH4)2SO4, 2 mM MgSO41 0.1% Triton X-100, 100 μg/ml BSA) supplied with nPfu (STRATAGENE) to attain a final concentration of 2 mM. Also used were 0.2 mM dNTPs, 0.3 μM of a pair of primers of SEQ ID Nos:16 and 17, and 2.5 U nPfu DNA polymerase. 20 ng of genomic DNA derived from human cell line K562 was used as a template. This reaction mixture was subjected to PCR by using GeneAmp2400 (PE Applied Biosystems) to investigate the influence of varying the concentration of betaine added on the PCR results. The PCR conditions were as follows: 1 preliminary cycle of 94° C. for 2 minutes, and then 35 cycles of 94° C. for 15 seconds, 60° C. for 30 seconds and 68° C. for 8.5 minutes.

[2] = target: T2, KOD-plus DNA polymerase (Thermococcus kodakarensis, UniProt P77933, DEL407-766/DEL853-1389); assay: PCR using KOD-plus with oxalate ion and betaine (Example 2-3); assay type: biochemical, Thermococcus kodakaraensis KOD1; details: 2 mM potassium oxalate, FIG. 13
T2 construct: purchased Toyobo
T2 sequence (P77933 other isoform, or with tags, fused parts or gaps DEL407-766/DEL853-1389): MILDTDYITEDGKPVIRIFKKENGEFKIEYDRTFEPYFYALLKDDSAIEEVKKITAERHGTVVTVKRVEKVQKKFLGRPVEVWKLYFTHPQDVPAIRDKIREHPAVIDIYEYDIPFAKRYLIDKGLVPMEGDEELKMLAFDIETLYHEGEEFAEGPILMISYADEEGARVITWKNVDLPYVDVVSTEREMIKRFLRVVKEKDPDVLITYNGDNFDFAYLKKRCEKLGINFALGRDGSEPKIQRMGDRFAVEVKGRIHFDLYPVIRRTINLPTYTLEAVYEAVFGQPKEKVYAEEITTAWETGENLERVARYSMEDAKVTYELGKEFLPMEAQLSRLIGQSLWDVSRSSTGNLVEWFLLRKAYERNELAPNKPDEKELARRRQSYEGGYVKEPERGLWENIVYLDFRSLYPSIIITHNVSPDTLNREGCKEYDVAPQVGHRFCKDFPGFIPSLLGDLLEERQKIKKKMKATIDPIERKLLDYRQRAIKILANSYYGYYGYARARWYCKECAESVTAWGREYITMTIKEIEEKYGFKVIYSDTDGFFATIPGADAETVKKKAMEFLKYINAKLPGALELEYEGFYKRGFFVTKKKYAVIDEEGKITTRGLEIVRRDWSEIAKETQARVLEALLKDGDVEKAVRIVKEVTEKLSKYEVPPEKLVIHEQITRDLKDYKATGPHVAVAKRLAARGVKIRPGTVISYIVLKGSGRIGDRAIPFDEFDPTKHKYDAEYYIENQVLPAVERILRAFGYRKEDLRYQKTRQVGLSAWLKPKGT
Experimental: Oxalate ion and betaine were investigated for their synergistic effectiveness in amplification of a target DNA which cannot be amplified by normal PCR, using KOD-plus DNA polymerase, i.e. a hot start enzyme which is a mixture of KOD (α-type enzyme) and two kinds of KOD antibodies. Potassium oxalate was added to the PCR buffer supplied with KOD-plus (TOYOBO CO., LTD.) to attain a final concentration of 2 mM. Also used were 0.2 mM dNTPs and 0.3 μM of a pair of primers of SEQ ID NOs: 14 and 15. 20 ng of genomic DNA derived from human cell line K562 was used as a template. This reaction mixture was subjected to PCR by using GeneAmp2400 (PE Applied Biosystems) to investigate the influence of varying the concentration of betaine on the PCR results. The PCR conditions were as follows: 1 preliminary reaction of 94° C. for 2 minutes, and then 35 cycles of 94° C. for 15 seconds, 60° C. for 30 seconds and 68° C. for 8.5 minutes.

[3] = test system: EX-Taq DNA polymerase; assay: PCR using EX-Taq DNA polymerase with added salts (Examples 1-1 to 1-3); assay type: biochemical
Experimental: The effect produced by the addition of oxalate ions was investigated in the PCR using EX-Taq DNA polymerase. A PCR buffer supplied with EX-Taq (TAKARA) and 0.3 μM of a pair of primers of SEQ ID Nos:8 and 9 and 0.2 mM dNTPs were used. PCR was performed by using 1.0 U EX-Taq DNA polymerase and 20 ng of genomic DNA derived from human cell line K562 as a template, with the influence on the PCR result caused by varying the concentration of added oxalate ion being investigated. The PCR conditions were as follows: 1 preliminary reaction of 94° C. for 2 minutes, and then 35 cycles of 94° C. for 15 seconds, 60° C. for 30 seconds and 68° C. for 8.5 minutes. This PCR amplification was performed by using GeneAmp2400 (PE Applied Biosystems).
Salts (potassium chloride, potassium acetate, potassium oxalate, sodium oxalate, potassium sulfate) were investigated for their effectiveness in PCR using EX-Taq DNA polymerase under the same conditions as Example 1. Each salts was used in an amount of 4 to 6 mM of ion equivalent

[4] = target: T1, nPfu DNA polymerase; assay: PCR using nPfu DNA polymerase with added salts (Examples 1-5, 1-6); assay type: biochemical; details: salt at 4-6 mM of ion equivalent, FIG. 7
Experimental: The effect produced by the addition of oxalate ion in PCR was investigated using nPfu polymerase. A PCR buffer (20 mM Tris-HCl (pH 8.75), 10 mM KCl, 10 mM (NH4) 2SO4, 2 mM MgSO4, 0.1% Triton X-100, 100 μg/ml BSA) attached to nPfu (STRATAGENE), 0.2 mM of dNTPs, and 0.3 μM of a pair of primers of SEQ ID NOs:12, and 13 were used. PCR was performed by using 2.5 U nPfu DNA polymerase and 20 ng of genomic DNA derived from human cell line K562 as a template, with the influence on the PCR result caused by varying the concentration of oxalate ion being investigated. PCR was performed by using GeneAmp2400 (PE Applied Biosystems) with the following conditions: 1 preliminary reaction of 94° C. for 2 minutes, and then 35 cycles of 94° C. for 15 seconds, 60° C. for 30 seconds and 68° C. for 8 minutes.
Salts (potassium chloride, potassium acetate, potassium oxalate, potassium sulfate) were tested for their effectiveness in PCR using nPfu DNA polymerase under the same conditions as Example 1-5.

Compound: C[N+](C)(C)CC(=O)[O-] [betaine, trimethylglycine]
- amplification of target DNA [1]: amplification of the target DNA was observed
- betaine concentration at which the amount of amplification was greatest [2]: 1.5 M
- betaine concentration giving an increased amount of amplification of the target DNA [2]: 0.5 to 1.5 M

Compound: O=C([O-])C(=O)[O-].[K+].[K+] [potassium oxalate]
- amplification of target DNA (electrophoresis pattern) ([3]; carboxylate salts, FIG. 3): amplification of the target DNA was observed
- amplification of target DNA (electrophoresis pattern) ([3]; salt at 4 to 6 mM of ion equivalent, FIG. 2): Amplification was observed
- amplification of target DNA (electrophoresis pattern) [4]: amplification of the target DNA observed
